# Where no end group is shown, it is not given here.
# Columns and labels:
# [1] = test system: adult derived neural stem cells; experiment: Proliferation of adult derived neural stem cells by increased cAMP (unpublished results); type: cell-based; conditions: increased levels of cAMP
# [2] = cited from earlier work
# human neural stem cells = experiment: Neurosphere formation of human neural stem cells; type: cell-based
# Procedure: Culture of human neural stem cells: Human neural stem cells were isolated and cultured under adherent conditions according to the protocol described in Palmer et al., 2001, Nature 411(6833):42-43, modified to exclude the additives PDGF and cystatinC and using B27 supplement instead of BIT. The cells were cultured for 10-16 passages in DMEM/F12 with B27-supplement and EGF (20 ng/ml) and FGF-2 (20 ng/ml). Cells were detached with Trypsin/EDTA, rinsed three times and then replated in suspension culture plastic wells in DMEM/F12 and B27-supplement for 24 h without growth factors. Thereafter factors (Vanadate, EGF or EGF+FGF2) were added for one day.
# hippocampal CA1 region = conditions: cited from earlier work; for delayed neuronal death in the hippocampal CA1 region: transient forebrain ischemia
# adult neural stem cells = experiment: Intracellular ATP assay (ViaLight kit) on cultured adult neural stem cells; type: cell-based, mice; conditions: for maximal amplitudes of responses: vanadate and EGF each added alone, compared
# Procedure: Neurosphere cultures: The anterior lateral wall of the lateral ventricle of 5-6 week old mice was enzymatically dissociated in 0.8 mg/ml hyaluronidase and 0.5 mg/ml trypsin in DMEM containing 4.5 mg/ml glucose and 80 units/ml DNase at 37° C. for 20 min. The cells were gently triturated and mixed with three volumes of Neurosphere medium (DMEM/F12, B27 supplement, 125 mM HEPES pH7.4) containing 20 ng/ml EGF (unless otherwise stated), 100 units/ml penicillin and 100 _g/ml streptomycin. After passing through a 70 _m strainer, the cells were pelleted at 160×g for 5 min. The supernatant was subsequently removed and the cells resuspended in Neurosphere medium supplemented as above, plated out in culture dishes and incubated at 37° C. Neurospheres were ready to be split approximately 7 days after plating.
# To split the neurospheres, they were collected by centrifugation at 160×g for 5 min. The conditioned supernatant (conditioned medium) was removed and saved. The neurospheres were resuspended in 0.5 ml Trypsin/EDTA in HBSS (1×), incubated at 37° C. for 2 min and triturated gently to aid dissociation. Following a further 3 min incubation at 37° C. and trituration, 3 volumes of ice cold NSPH-media-EGF were added to stop further trypsin activity. The cells were pelleted at 220×g for 4 min, and resuspended in a 1:1 mixture of fresh Neurosphere medium and conditioned medium. EGF was supplemented to 20 ng/ml and the culture plated out and incubated at 37° C.
# Where stated, a minimal Neurosphere medium was used containing BIT supplement in place of B27 supplement.
# Neurosphere assays: NSC, cultured as described above, from passage 2 were seeded in DMEM/F12 supplemented with B27 into a 96-well plate as single cells (10000 cells/well), to which agents were added at the concentrations indicated.
# After 3 days of treatment, intracelluar ATP was measured using the ViaLight kit (BioWhittaker) according to the manufacturer's instructions.
# neural stem cells = experiment: Sphere formation in presence of vanadate and in combination with PACAP; type: cell-based; conditions: DMEM/F12 with B27, after 7 days
# Procedure: Cells were isolated as described (see section 5.5.1). Aliquots of 1 ml cell suspension per well equivalent to one brain per well were plated in DMEM/F12 supplemented with B27.
# 10 uM Vanadate or 10 uM Vanadate +300 nM PACAP was added to the cultures. Fresh substances were added every second day. After 7 days sphereformation was observed.
# [3] = experimental animals; cited from earlier work
compound,measurement,setting,value
"PACAP: neuropeptide acting on cyclase activating GPCRs (HSDGIFTDSYSRYRKQMAVKKYLAAVLGKRYKQRVKNK; ends and bridges not checked; UniProt P18509 132-169, looked up)",proliferation,[1],trigger proliferation
[Na+].[O]=[V](=[O])[O-] [NaVO3],most common adverse effect,[2]; oral,mild gastrointestinal intolerance
FGF-2: protein growth factor,neurosphere formation with growth factors,"human neural stem cells; growth factors added for one day, FIG. 8b and 8c",reduced neurosphere formation
IGF-1: insulinlike growth factor-1,delayed neuronal death in the hippocampal CA1 region,hippocampal CA1 region,rescued cells from delayed neuronal death
COc1ccc(C2CNC(=O)C2)cc1OC1CCCC1 (centres unmarked) [rolipram],proliferation,[1],trigger proliferation
"EGF: epidermal growth factor, protein growth factor",maximal amplitudes of responses,adult neural stem cells; FIGS. 2 and 3,equal in size
[Na+].[Na+].[Na+].[O]=[V]([O-])([O-])[O-] [sodium orthovanadate],delayed neuronal death in the hippocampal CA1 region,hippocampal CA1 region,rescued cells from delayed neuronal death
[O]=[V]([O-])([O-])[O-] [vanadate],proliferative effect (intracellular ATP levels),"adult neural stem cells; added alone, growth media supplemented with BIT or B27, 3 days of treatment, FIG. 1",concentration dependent proliferative effect
same,ATP-levels with EGF and increasing concentrations of vanadate,"adult neural stem cells; in addition to EGF (3 nM), FIG. 7",not significantly altered
same,proliferative effect in combination with EGF,"adult neural stem cells; in the presence of EGF, supplement BIT or B27, FIGS. 2 and 3",additive
same,proliferative effect in combination with PACAP,"adult neural stem cells; in the presence of PACAP, supplement BIT or B27, FIGS. 4, 5",additive
same,maximal amplitudes of responses,adult neural stem cells; FIGS. 2 and 3,equal in size
same,sphere formation,"neural stem cells; 10 uM Vanadate + 300 nM PACAP, FIG. 6b",Sphereforming capacity was noted
same,sphere formation,"neural stem cells; 10 uM Vanadate alone, FIG. 6a",Sphereforming capacity was noted
same,sphere formation,"human neural stem cells; 10 uM, after 1 d, DMEM/F12 and B27-supplement, FIG. 8a",formed numerous spheres
same,adherence of the spheres,"human neural stem cells; 10 uM, after 1 d, FIG. 8a",virtually all spheres were free floating
same,tolerability in humans,[2]; humans,tolerated
same,effect in patients suffering from diabetes,[2]; patients suffering from diabetes,positive results
same,blood glucose levels,[3],reduces blood glucose levels
same,neuroprotection,hippocampal CA1 region; experimental animals,neuroprotective
